In US8716493B2, “Multicyclic compounds and the use thereof” (Cephalon, Inc., priority 2000, dated 2014):
Structures can show the parent of a compound that is named as a salt.

These compounds were tested against recombinant human PARP (Homo sapiens, UniProt P09874) (assay: Measurement of PARP enzymatic activity (transfer of radiolabeled ADP-ribose from NAD+ to protein acceptor)). Conditions: 3 uM; Table 3.
Type: biochemical
Protocol: PARP activity was monitored by transfer of radiolabeled ADP-ribose units from [^32]NAD^+ to a protein acceptor such as histone or PARP itself. […] The reactions were initiated by the addition of 100 μM NAD^+ supplemented with 2 uCi [^32]NAD^+/mL and maintained at room temperature for 12 minutes. […] The amount of acid-insoluble radioactivity, corresponding to polyADP-ribosylated protein, was quantitated in a Wallac MicroBeta scintillation counter.
Single-point inhibition data were calculated by comparing PARP, VEGFR2, or MLK3 activity in the presence of inhibitor to activity in the presence of DMSO only. Inhibition curves for compounds were generated by plotting percent inhibition versus log10 of the concentration of compound. IC50 values were calculated by nonlinear regression using the sigmoidal dose-response (variable slope) equation in GraphPad Prism as follows: y=bottom+(top−bottom)/(1+10^(log IC50^−x)*Hillslope) where y is the % activity at a given concentration of compound, x is the logarithm of the concentration of compound, bottom is the % inhibition at the lowest compound concentration tested, and top is the % inhibition at the highest compound concentration examined. The values for bottom and top were fixed at 0 and 100, respectively. IC50 values were reported as the average of at least three separate determinations.
For some compounds, inhibiting data is presented as percent inhibition at a specified concentration. Compounds are tabulated together with compound number, substituents, and enzyme inhibition data.

Chain of recombinant human PARP (P09874 whole entry): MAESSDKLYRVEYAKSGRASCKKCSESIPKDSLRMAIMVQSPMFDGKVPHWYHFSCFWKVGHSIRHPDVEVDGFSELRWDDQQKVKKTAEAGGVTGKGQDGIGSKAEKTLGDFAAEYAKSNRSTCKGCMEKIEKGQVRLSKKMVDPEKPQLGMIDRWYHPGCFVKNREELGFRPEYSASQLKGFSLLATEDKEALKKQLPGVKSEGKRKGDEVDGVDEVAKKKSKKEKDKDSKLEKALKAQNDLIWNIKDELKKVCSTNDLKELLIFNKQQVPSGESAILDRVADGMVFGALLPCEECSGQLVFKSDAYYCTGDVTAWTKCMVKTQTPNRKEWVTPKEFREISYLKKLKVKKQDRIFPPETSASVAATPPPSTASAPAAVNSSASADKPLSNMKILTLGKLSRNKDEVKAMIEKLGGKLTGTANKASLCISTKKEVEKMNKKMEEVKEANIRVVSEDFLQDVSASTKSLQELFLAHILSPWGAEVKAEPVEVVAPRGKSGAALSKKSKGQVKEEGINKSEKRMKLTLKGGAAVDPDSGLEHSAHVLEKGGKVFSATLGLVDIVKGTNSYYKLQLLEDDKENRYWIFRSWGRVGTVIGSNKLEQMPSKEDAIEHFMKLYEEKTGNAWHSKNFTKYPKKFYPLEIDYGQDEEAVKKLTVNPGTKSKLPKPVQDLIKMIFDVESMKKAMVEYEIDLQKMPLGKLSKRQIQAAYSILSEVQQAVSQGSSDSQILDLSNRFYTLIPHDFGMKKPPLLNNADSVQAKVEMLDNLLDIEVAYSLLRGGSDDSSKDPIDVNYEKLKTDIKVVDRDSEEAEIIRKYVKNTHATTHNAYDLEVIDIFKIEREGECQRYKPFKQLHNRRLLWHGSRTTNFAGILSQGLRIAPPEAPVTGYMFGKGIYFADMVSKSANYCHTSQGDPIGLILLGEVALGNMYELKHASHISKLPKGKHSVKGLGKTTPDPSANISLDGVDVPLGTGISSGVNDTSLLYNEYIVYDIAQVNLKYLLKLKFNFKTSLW

| SMILES | PARP percent inhibition @ 3 uM |
| --- | --- |
| NCCCCC(N)C(=O)n1c2ccc(Br)cc2c2c3c(c4c(c21)CCC4)C(=O)NC3 [Compound 6i, 3-Bromo-11-L-lysyl-5,7,8,9,10,11-hexahydrocyclopent[a]pyrrolo[3,4-c]carbazole-7(6H)-one dihydrochloride] | [35% @ |

Same assay, conditions: PARP IC50 (nM), Table 8

| SMILES | IC50 [nM] |
| --- | --- |
| O=C(NCc1cccnc1)Oc1ccc2[nH]c3c4c(c5c(c3c2c1)C(=O)NC5=O)CCC4 [Compound 15f] | 34 |
| CN1CCN(C(=O)Oc2ccc3[nH]c4c5c(c6c(c4c3c2)C(=O)NC6=O)CCC5)CC1 [Compound 15b] | 51 |
| O=C(NCCc1ccccn1)Oc1ccc2[nH]c3c4c(c5c(c3c2c1)C(=O)NC5=O)CCC4 [Compound 15m] | 31 |
| O=C(NCCCN1CCCC1=O)Oc1ccc2[nH]c3c4c(c5c(c3c2c1)C(=O)NC5=O)CCC4 [Compound 15e] | 28 |

Same assay, conditions: PARP IC50, Table 18

| SMILES | IC50 [nM] |
| --- | --- |
| O=C1NC(=O)c2c1c1c(c3[nH]c4ccc(OC(=O)N5CCCCC5)cc4c23)CCC1 [Compound 15p] | 82 |
| O=C1NC(=O)c2c1c1c(c3[nH]c4ccc(OC(=O)N5CCOCCOCCOCC5)cc4c23)CCC1 [Compound 15o] | 76 |

Same assay, conditions: Table 2; read-out: PARP IC50

| IC50 [nM] | SMILES |
| --- | --- |
| 48 | O=C(O)CCCC(=O)NCc1ccc2[nH]c3c4c(c5c(c3c2c1)C(=O)NC5=O)CCC4 [Compound 2ac, 3-(N-(4-(Carboxy)butanoyl)aminomethyl)-5,7,8,9,10,11-hexahydrocyclopent[a]-pyrrolo[3,4-c]carbazole-5(6H), 7-dione] |
| 20 | CC(=O)NCc1nc(-c2ccc3[nH]c4c5c(c6c(c4c3c2)C(=O)NC6=O)CCC5)cs1 [Compound 3n] |
| 31 | CN(C)CCNC(=O)c1ccc2[nH]c3c4c(c5c(c3c2c1)C(=O)NC5=O)CCC4 [Compound 2cg] |
| 32 | O=C1NC(=O)c2c1c1c(c3[nH]c4ccc(CN5CCOCC5)cc4c23)CCC1 [Compound 2bv] |
| 35 | O=C1NC(=O)c2c1c1c(c3[nH]c4ccc(CN5CCCC5)cc4c23)CCC1 [Compound 2bw] |
| 25 | Nc1nc(-c2ccc3[nH]c4c5c(c6c(c4c3c2)C(=O)NC6=O)CCC5)cs1 [Compound 3a] |
| 148 | O=C(NCCN1CCCCC1)c1ccc2[nH]c3c4c(c5c(c3c2c1)C(=O)NC5=O)CCC4 [Compound 2cm] |
| 56 | CCCCC(=O)NCc1nc(-c2ccc3[nH]c4c5c(c6c(c4c3c2)C(=O)NC6=O)CCC5)cs1 [Compound 3v] |
| 12 | COC(=O)C1CCCN1CC(=O)c1ccc2[nH]c3c4c(c5c(c3c2c1)C(=O)NC5=O)CCC4 (stereo not drawn) [Compound 4a] |
| 104 | O=C1NC(=O)c2c1c1c(c3[nH]c4ccc(COCCc5ccccn5)cc4c23)CCC1 [Compound 2df] |
| 293 | O=C1NC(=O)c2c1c1c(c3[nH]c4ccc(CN(Cc5ccccc5)Cc5ccccc5)cc4c23)CCC1 [Compound 2bo] |
| 12 | O=C1NC(=O)c2c1c1c(c3[nH]c4ccc(C(=O)N5CCOCC5)cc4c23)CCC1 [Compound 2cp] |
| 39 | O=C1NC(=O)c2c1c1c(c3[nH]c4ccc(CNS(=O)(=O)c5ccccc5)cc4c23)CCC1 [Compound 2cd] |
| 25 | CCCCNCc1ccc2[nH]c3c4c(c5c(c3c2c1)C(=O)NC5=O)CCC4 [Compound 2bp] |
| 25 | O=C1NC(=O)c2c1c1c(c3[nH]c4ccc(Br)cc4c23)CCC1 [Compound 2a] |
| 32 | CCNCc1ccc2[nH]c3c4c(c5c(c3c2c1)C(=O)NC5=O)CCC4 [Compound 2bk] |
| 33 | CC(C)(C)OC(=O)NCC(=O)NCc1ccc2[nH]c3c4c(c5c(c3c2c1)C(=O)NC5=O)CCC4 [Compound 2v, 3-(N-(2-(N-Boc-amino)acetyl)aminomethyl)-5,7,8,9,10,11-hexahydrocyclopent[a]pyrrolo[3,4-c]carbazole-5(6H), 7-dione] |
| 42 | CCCC(=O)NCc1nc(-c2ccc3[nH]c4c5c(c6c(c4c3c2)C(=O)NC6=O)CCC5)cs1 [Compound 3u] |
| 50 | O=C(O)CCC(=O)NCc1ccc2[nH]c3c4c(c5c(c3c2c1)C(=O)NC5=O)CCC4 [Compound 2ab, 3-(N-(3-(Carboxy)propanoyl)aminomethyl)-5,7,8,9,10,11-hexahydrocyclopent[a]-pyrrolo[3,4-c]carbazole-5(6H), 7-dione] |
| 85 | O=C(O)c1ccc2[nH]c3c4c(c5c(c3c2c1)C(=O)NC5=O)CCC4 [Compound 2bd] |
| 12 | CN1N=C(c2ccc3[nH]c4c5c(c6c(c4c3c2)C(=O)NC6=O)CCC5)CCC1=O [Compound 4m] |
| 14 | O=C(Cn1cnnn1)NCc1ccc2[nH]c3c4c(c5c(c3c2c1)C(=O)NC5=O)CCC4 [Compound 2by] |
| 18 | COCCNC(=O)c1ccc2[nH]c3c4c(c5c(c3c2c1)C(=O)NC5=O)CCC4 [Compound 2co] |

| IC50 [nM] | SMILES |
| --- | --- |
| 59 | CCOCCOc1ccc2[nH]c3c4c(c5c(c3c2c1)C(=O)NC5=O)CCC4 [Compound 2aq] |
| 151 | CN(C)CCN(C)C(=O)c1ccc2[nH]c3c4c(c5c(c3c2c1)C(=O)NC5=O)CCC4 [Compound 2cu] |
| 25 | CNCc1ccc2[nH]c3c4c(c5c(c3c2c1)C(=O)NC5=O)CCC4 [Compound 2bt] |
| 16 | CN1CCN(CC(=O)c2ccc3[nH]c4c5c(c6c(c4c3c2)C(=O)NC6=O)CCC5)CC1 [Compound 2g] |
| 40 | Cc1nc(-c2ccc3[nH]c4c5c(c6c(c4c3c2)C(=O)NC6=O)CCC5)cs1 [Compound 3b] |
| 13 | CC(=O)NCc1ccc2[nH]c3c4c(c5c(c3c2c1)C(=O)NC5=O)CCC4 [Compound 2r, 3-(Acetylaminomethyl)-5,7,8,9,10,11-hexahydrocyclopent[a]pyrrolo[3,4-c]carbazole-5(6H), 7-dione] |
| 27 | O=C1NC(=O)c2c1c1c(c3[nH]c4ccc(O)cc4c23)CCC1 [Compound 2ao] |
| 10 | COC(=O)CCC(=O)NCc1ccc2[nH]c3c4c(c5c(c3c2c1)C(=O)NC5=O)CCC4 [Compound 2z, 3-(N-(3-(Methoxycarbonyl)propanoyl)aminomethyl)-5,7,8,9,10,11-hexahydrocyclopent[a]pyrrolo[3,4-c]carbazole-5(6H), 7-dione] |
| 31 | NC(=O)c1ccc2[nH]c3c4c(c5c(c3c2c1)C(=O)NC5=O)CCC4 [Compound 2bh] |
| 17 | O=C1NC(=O)c2c1c1c(c3[nH]c4ccc(-c5csc(NC6OC(CO)C(O)C(O)C6O)n5)cc4c23)CCC1 (stereo not drawn) [Compound 3ab] |
| 8 | CN(CC(=O)O)CC(=O)c1ccc2[nH]c3c4c(c5c(c3c2c1)C(=O)NC5=O)CCC4 [Compound 2l] |
| 56 | CC(C)CC(=O)NCc1nc(-c2ccc3[nH]c4c5c(c6c(c4c3c2)C(=O)NC6=O)CCC5)cs1 [Compound 3r] |
| 17 | CCN(CC)Cc1ccc2[nH]c3c4c(c5c(c3c2c1)C(=O)NC5=O)CCC4 [Compound 2bm] |
| 84 | Cc1nc(-c2ccc3[nH]c4c5c(c6c(c4c3c2)C(=O)NC6=O)CCC5)c(Br)s1 [Compound 3c] |
| 10 | O=C(CCC(=O)N1CCCCC1)c1ccc2[nH]c3c4c(c5c(c3c2c1)C(=O)NC5=O)CCC4 [Compound 4p] |
| 39 | O=C1NC(=O)c2c1c1c(c3[nH]c4ccc(Cl)cc4c23)CCC1 [Compound 2b] |
| 33 | CN(C)CCCNC(=O)c1ccc2[nH]c3c4c(c5c(c3c2c1)C(=O)NC5=O)CCC4 [Compound 2ch] |
| 33 | CC(=O)Oc1ccc2[nH]c3c4c(c5c(c3c2c1)C(=O)NC5=O)CCC4 [Compound 2au] |
| 22 | O=C1NC(=O)c2c1c1c(c3[nH]c4ccc(OCCN5CCOCC5)cc4c23)CCC1 [Compound 2at] |
| 25 | CC(C)NCc1ccc2[nH]c3c4c(c5c(c3c2c1)C(=O)NC5=O)CCC4 [Compound 2br] |
| 17 | O=C1CCC(c2ccc3[nH]c4c5c(c6c(c4c3c2)C(=O)NC6=O)CCC5)=NN1 [Compound 4l] |
| 20 | CCNC(=O)NCc1nc(-c2ccc3[nH]c4c5c(c6c(c4c3c2)C(=O)NC6=O)CCC5)cs1 [Compound 3o] |

Same assay, conditions: Table 4; read-out: PARP IC50

| IC50 [nM] | SMILES |
| --- | --- |
| 1820 | O=c1[nH][nH]c(=O)c2c1c1c(c3[nH]ccc32)CCC1 [Compound 8e, 1,6,7,8-Tetrahydrocyclopent[g]indole-4,5-dicarboxylate hydrazide] |
| 3 | O=C1NC(=O)c2c1c1c(c3[nH]c4ncccc4c23)CCC1 [Compound 8h] |

Same assay, conditions: Table 7; read-out: PARP IC50

| IC50 [nM] | SMILES |
| --- | --- |
| 19 | COc1cccc2[nH]c3c4c(c5c(c3c12)C(=O)NC5=O)CCC4 [Compound 14b] |

Same assay, conditions: Table 18; read-out: PARP IC50

| IC50 [nM] | SMILES |
| --- | --- |
| 441 | O=C1NC(=O)c2c1c1c(c3[nH]c4cccc(OCCN5CCOCC5)c4c23)CCC1 [Compound 14d] |
| 53 | CN(C)CN1C(=O)c2c3c(c4[nH]c5ccccc5c4c2C1=O)CCC3 [Compound 16i] |
| 20 | O=C1NC(=O)c2c1c1c(c3[nH]c4nc(O)c(Br)cc4c23)CCC1 [Compound 8p] |
| 526 | CCN(CC)CCOc1cccc2[nH]c3c4c(c5c(c3c12)C(=O)NC5=O)CCC4 [Compound 14e] |
| 83 | O=C1NC(=O)c2c1c1c(c3[nH]c4cccc(OCCO)c4c23)CCC1 [Compound 14k] |
| 56 | CCOc1cccc2[nH]c3c4c(c5c(c3c12)C(=O)NC5=O)CCC4 [Compound 14g] |
| 6 | O=C1NC(=O)c2c1c1c(c3[nH]c4nc(O)ccc4c23)CCC1 [Compound 8n] |
| 5 | CCOc1ccnc2[nH]c3c4c(c5c(c3c12)C(=O)NC5=O)CCC4 [Compound 8y] |
